# Source: patent US7523563B2, “Process for preparing certain hydrohalide metal complex compounds having a specific coarse structure” (Verla-Pharm Arzneimittelfabrik Apotheker H.J.v. Ehrlich …, priority 2005, dated 2009)
# “And” between values parts separate entries of the source, which are not always exact repeats. Identical values can stand only once.
# Tests used:
# [1] = Dissolving properties, time until dissolution complete in water; assay type: physicochemical; settings: 10 g in 250 ml of water, stirring 20 revolutions per min; hydrochloride
# Method: The dissolving properties of granular magnesium L-aspartate hydrochloride prepared by the process according to the invention were compared with a finely powdered magnesium L-aspartate hydrochloride prepared by a standard process (disclosed in DE 32 38 118 A1). The test arrangement consisted of a glass beaker with stirring bar which was adjusted to 20 revolutions per min. 250 ml of water were introduced and then 10 g of test material were added with the stirrer motor running. The time until dissolution was complete was measured.
# [2] = Particle size distribution, comparative sieve analysis (Hosokawa Alpine air jet sieve); assay type: physicochemical
# Excerpt: The particle size distribution of granular magnesium L-aspartate hydrochloride prepared by the process according to the invention was compared with a finely powdered magnesium L-aspartate hydrochloride prepared by a standard process (disclosed in DE 32 38 118 A1).
# [3] = Flow time and flowability, conical flow funnel, 2.9.16 Method Ph. Eur.; assay type: physicochemical; settings: 100 g, time for whole sample to flow out of the funnel, two samples each; hydrochloride
# Method: The flowability of granular magnesium L-aspartate hydrochloride prepared by the process according to the invention was compared with a finely powdered magnesium L-aspartate hydrochloride prepared by a standard process (disclosed in DE 32 38 118 A1). The test arrangement consisted of a conical flow funnel with a height of 22.5 cm, an upper internal diameter of 7.3 cm and a lower internal diameter of 8.2 mm. The test was carried out by the 2.9.16 Method, Ph. Eur., 4th edition, main volume 2002, as follows. 100 g portions of material were put into the funnel. Opening of the funnel orifice was followed by assessment of the flowability, and the time for the whole sample to flow out of the funnel was determined. Two samples were measured in each case.
# [4] = Water uptake capacity or hygroscopicity, desiccator at 75% relative humidity; assay type: physicochemical; settings: for percentage increase in weight: hydrochloride
# Excerpt: The hygroscopicity of granular magnesium L-aspartate hydrochloride prepared by the process according to the invention was compared with a finely powdered magnesium L-aspartate hydrochloride prepared by a standard process (disclosed in DE 32 38 118 A1). The test arrangement consisted of a desiccator which was adjusted to a relative humidity of 75% with a saturated sodium chloride solution. In each case a defined amount of sample was weighed out and the sample dish was placed in the desiccator. The percentage increase in weight of the weighed amount was determined after 2, 4, 5 and 20 hours.
# [5] = Particle size distribution of the final product of Example 1; assay type: physicochemical
# [6] = Apparent volume of the final product; assay type: physicochemical
# Method: A product with a very favourable apparent volume can be achieved in the process according to the invention for preparing the granular hydrohalide of the complex compound of relevance here. The apparent volume [volume of the uncompressed product (ml)/100 g of the product] is preferably in a range from 150 to 180 ml/100 g, with a particularly preferred apparent volume being about 170 ml/100 g.
# [7] = background statement; cited from earlier work
# [8] = listed as granular magnesium L-aspartate hydrochloride, hydrochloride
# [9] = sieve 63.0 μm, listed as process according to the present invention, hydrochloride
# [10] = sieve 90.0 μm, listed as process according to the present invention, hydrochloride
# [11] = sieve 150.0 μm, listed as process according to the present invention, hydrochloride
# [12] = listed as finely powdered magnesium L-aspartate hydrochloride, hydrochloride
# [13] = sieve 63.0 μm, listed as standard process, hydrochloride
# [14] = sieve 90.0 μm, listed as standard process, hydrochloride
# [15] = sieve 150.0 μm, listed as standard process, hydrochloride
compound,measurement,setting,value
"Cl.N[C@@H](CC(=O)[O-])C(=O)[O-].[Mg+2] [According to the invention, magnesium L-aspartate hydrochloride]",Dissolving time,[1],3 min and 2 min
same,average particle size (d50),[2]; [8],250.8 μm
same,maximum particle size (dmax),[2]; [8],448.7 μm
same,minimum particle size (dmin),[2]; [8],48.0 μm
same,1 − Q,[2]; sieve 0 μm (receiver),100.0 %-R
same,Q,[2]; sieve 0 μm (receiver),0.0 %-D
same,q,"[2]; sieve 0 μm (receiver), listed as process according to the present invention, hydrochloride",0.2 %-B
same,1 − Q,[2]; [9],99.8 %-R
same,Q,[2]; [9],0.2 %-D
same,q,[2]; [9],0.6 %-B
same,1 − Q,[2]; [10],99.2 %-R
same,Q,[2]; [10],0.8 %-D
same,q,[2]; [10],10.2 %-B
same,1 − Q,[2]; [11],89.0 %-R
same,Q,[2]; [11],11.0 %-D
same,q,[2]; [11],61.4 %-B
same,1 − Q,[2]; sieve 212.0 μm,27.6 %-R
same,Q,[2]; sieve 212.0 μm,72.4 %-D
same,q,[2]; sieve 212.0 μm,18.4 %-B
same,1 − Q,[2]; sieve 315.0 μm,9.2 %-R
same,Q,[2]; sieve 315.0 μm,90.8 %-D
same,q,[2]; sieve 315.0 μm,5.4 %-B
same,1 − Q,[2]; sieve 400.0 μm,3.8 %-R
same,Q,[2]; sieve 400.0 μm,96.2 %-D
same,q,[2]; sieve 400.0 μm,3.0 %-B
same,1 − Q,[2]; sieve 500.0 μm,0.8 %-R
same,Q,[2]; sieve 500.0 μm,99.2 %-D
same,q,[2]; sieve 500.0 μm,0.8 %-B
same,Flow time,[3],10 s
same,hygroscopicity compared with a finely powdered product according to the prior art,[4]; 2 to 20 hours,distinctly reduced
same,percentage increase in weight,[4]; testing time 2 h,0.18% and 0.16%
same,percentage increase in weight,[4]; testing time 4 h,0.33% and 0.30%
same,percentage increase in weight,[4]; testing time 5 h,0.43% and 0.40%
same,percentage increase in weight,[4]; testing time 20 h,1.74% and 1.63%
"Cl.N[C@@H](CC(=O)[O-])C(=O)[O-].[Mg+2] [Example 1, magnesium L-aspartate hydrochloride]","particle size distribution, fraction of particles",[5]; 100-140 μm,19.48%
same,"particle size distribution, fraction of particles",[5]; 140-250 μm,57.84%
same,"particle size distribution, fraction of particles",[5]; 250-315 μm,10.81%
same,"particle size distribution, fraction of particles",[5]; 315-400 μm,4.78%
same,"particle size distribution, fraction of particles",[5]; 400-500 μm,0.90%
same,"particle size distribution, fraction of particles",[5]; <100 μm,6.19%
same,apparent volume [volume of the uncompressed product (ml)/100 g of the product],[6],170 ml/100 g
Cl.N[C@@H](CC(=O)[O-])C(=O)[O-].[Mg+2] [Magnesium L-aspartate hydrochloride],humidity at which the substance liquefies,[7],more than 50%
"Cl.N[C@@H](CC(=O)[O-])C(=O)[O-].[Mg+2] [Standard, magnesium L-aspartate hydrochloride, reference compound]",Dissolving time,[1],7 min
same,average particle size (d50),[2]; [12],54.9 μm
same,maximum particle size (dmax),[2]; [12],260.0 μm
same,minimum particle size (dmin),[2]; [12],0.7 μm
same,1 − Q,[2]; sieve 0 μm (receiver),100.0 %-R
same,Q,[2]; sieve 0 μm (receiver),0.0 %-D
same,q,"[2]; sieve 0 μm (receiver), listed as standard process, hydrochloride",55.4 %-B
same,1 − Q,[2]; [13],44.6 %-R
same,Q,[2]; [13],55.4 %-D
same,q,[2]; [13],23.8 %-B
same,1 − Q,[2]; [14],20.8 %-R
same,Q,[2]; [14],79.2 %-D
same,q,[2]; [14],15.6 %-B
same,1 − Q,[2]; [15],5.2 %-R
same,Q,[2]; [15],94.8 %-D
same,q,[2]; [15],5.2 %-B
same,percentage increase in weight,[4]; testing time 2 h,0.35% and 0.30%
same,percentage increase in weight,[4]; testing time 4 h,0.63% and 0.55%
same,percentage increase in weight,[4]; testing time 5 h,0.72% and 0.71%
same,percentage increase in weight,[4]; testing time 20 h,3.06% and 2.70%
